Values after ≈ are worked out from the molar mass of the structure shown.
How the values were obtained:
[1] = system: Mycobacterium tuberculosis; assay: Antitubercular activity against Mycobacterium tuberculosis H37Rv ATCC 27294 after 5 to 8 days by microplate alamar blue assay; type: functional
[2] = system: Mycobacterium tuberculosis; assay: Antimycobacterial activity against Mycobacterium tuberculosis H37Rv ATCC 27294 assessed as growth inhibition at 6.25 ug/ml after 5 to 8 days by microplate alamar blue assay relative to control; type: functional; conditions: read-out: GI

O=C1Nc2c(ccc(Cl)c2Cl)C(=O)/C1=N/Nc1ccccc1
MIC [1]: < 6.25 µg/mL
inhibition of growth at 6.25 µg/mL [2]: 85%

COc1ccc(N/N=C2\C(=O)Nc3c(Cl)ccc(Cl)c3C2=O)cc1
MIC [1]: > 6.25 µg/mL
inhibition of growth at 6.25 µg/mL [2]: 36%

Cc1cccc(N/N=C2\C(=O)Nc3c(C)cccc3C2=O)c1
MIC [1]: > 6.25 µg/mL
inhibition of growth at 6.25 µg/mL [2]: 31%

O=C1Nc2cc([N+](=O)[O-])ccc2C(=O)/C1=N/Nc1ccc(Cl)c(F)c1
MIC [1]: < 6.25 µg/mL
inhibition of growth at 6.25 µg/mL [2]: 70%

COc1ccc(N/N=C2\C(=O)Nc3ccc(Cl)cc3C2=O)cc1
MIC [1]: < 6.25 µg/mL
inhibition of growth at 6.25 µg/mL [2]: 55%

CC(=O)c1ccc(N/N=C2\C(=O)Nc3c(Cl)cccc3C2=O)cc1
MIC [1]: > 6.25 µg/mL
inhibition of growth at 6.25 µg/mL [2]: 24%

O=C1Nc2c(ccc(Cl)c2Cl)C(=O)/C1=N/Nc1cccc([N+](=O)[O-])c1
MIC [1]: > 6.25 µg/mL
inhibition of growth at 6.25 µg/mL [2]: 27%

O=C1Nc2ccc(Cl)cc2C(=O)/C1=N/Nc1ccc(F)cc1
MIC [1]: < 6.25 µg/mL
inhibition of growth at 6.25 µg/mL [2]: 71%

Cc1ccccc1N/N=C1/C(=O)c2ccccc2N(C)C1=O
MIC [1]: < 6.25 µg/mL
inhibition of growth at 6.25 µg/mL [2]: 97%

Cc1ccc(N/N=C2\C(=O)Nc3c(Cl)ccc(Cl)c3C2=O)cc1
MIC [1]: > 6.25 µg/mL
inhibition of growth at 6.25 µg/mL [2]: 11%

Cc1cccc(C)c1N/N=C1\C(=O)Nc2c(cccc2[N+](=O)[O-])C1=O
MIC [1]: > 6.25 µg/mL
inhibition of growth at 6.25 µg/mL [2]: 22%

CO[C@H]1/C=C/O[C@@]2(C)Oc3c(C)c(O)c4c(O)c(c(/C=N/N5CCN(C)CC5)c(O)c4c3C2=O)NC(=O)/C(C)=C\C=C\[C@H](C)[C@H](O)[C@@H](C)[C@@H](O)[C@@H](C)[C@H](OC(C)=O)[C@@H]1C [RIFAMPIN]
MIC [1]: 0.015 µg/mL (≈ 0.0182 µM)
inhibition of growth at 6.25 µg/mL [2]: 97%

Cc1cccc2c1NC(=O)/C(=N\Nc1cccc(Cl)c1)C2=O
MIC [1]: > 6.25 µg/mL
inhibition of growth at 6.25 µg/mL [2]: 39%

O=C1Nc2cc(Cl)ccc2C(=O)/C1=N/Nc1ccc(F)cc1
MIC [1]: < 6.25 µg/mL
inhibition of growth at 6.25 µg/mL [2]: 50%

O=C1Nc2c(cccc2[N+](=O)[O-])C(=O)/C1=N/Nc1cccc([N+](=O)[O-])c1
MIC [1]: < 6.25 µg/mL
inhibition of growth at 6.25 µg/mL [2]: 60%

O=C1Nc2cc(Cl)ccc2C(=O)/C1=N/Nc1ccc([N+](=O)[O-])cc1
MIC [1]: > 6.25 µg/mL
inhibition of growth at 6.25 µg/mL [2]: 1%

O=C1Nc2cc([N+](=O)[O-])ccc2C(=O)/C1=N/Nc1ccc(F)cc1
MIC [1]: < 6.25 µg/mL
inhibition of growth at 6.25 µg/mL [2]: 100%

Cc1ccc(N/N=C2\C(=O)Nc3c(ccc(Cl)c3Cl)C2=O)cc1
MIC [1]: < 6.25 µg/mL
inhibition of growth at 6.25 µg/mL [2]: 54%

CC(=O)c1ccc(N/N=C2\C(=O)Nc3cc(Cl)ccc3C2=O)cc1
MIC [1]: > 6.25 µg/mL
inhibition of growth at 6.25 µg/mL [2]: 6%

COc1ccc(N/N=C2\C(=O)Nc3cc(Cl)ccc3C2=O)cc1
MIC [1]: > 6.25 µg/mL
inhibition of growth at 6.25 µg/mL [2]: 4%

O=C1Nc2c(Cl)cccc2C(=O)/C1=N/Nc1ccccc1
MIC [1]: < 6.25 µg/mL
inhibition of growth at 6.25 µg/mL [2]: 100%

CN1C(=O)/C(=N\Nc2ccc(Cl)cc2)C(=O)c2ccccc21
MIC [1]: > 6.25 µg/mL
inhibition of growth at 6.25 µg/mL [2]: 38%

O=C1Nc2c(Cl)ccc(Cl)c2C(=O)/C1=N/Nc1cccc(Cl)c1
MIC [1]: > 6.25 µg/mL
inhibition of growth at 6.25 µg/mL [2]: 32%

O=C1Nc2c(cccc2[N+](=O)[O-])C(=O)/C1=N/Nc1cccc(Cl)c1
MIC [1]: < 6.25 µg/mL
inhibition of growth at 6.25 µg/mL [2]: 82%

O=C1Nc2ccccc2C(=O)/C1=N/Nc1cccc(Cl)c1
MIC [1]: > 6.25 µg/mL
inhibition of growth at 6.25 µg/mL [2]: 41%

O=C1Nc2cc([N+](=O)[O-])ccc2C(=O)/C1=N/Nc1cccc(Cl)c1Cl
MIC [1]: > 6.25 µg/mL
inhibition of growth at 6.25 µg/mL [2]: 21%

Cc1c(Cl)cccc1N/N=C1\C(=O)Nc2cc([N+](=O)[O-])ccc2C1=O
MIC [1]: < 6.25 µg/mL
inhibition of growth at 6.25 µg/mL [2]: 98%

COc1ccccc1N/N=C1\C(=O)Nc2cc([N+](=O)[O-])ccc2C1=O
MIC [1]: < 6.25 µg/mL
inhibition of growth at 6.25 µg/mL [2]: 96%

COc1ccc(N/N=C2\C(=O)c3cccc([N+](=O)[O-])c3N(C)C2=O)c(C)c1
MIC [1]: > 6.25 µg/mL
inhibition of growth at 6.25 µg/mL [2]: 40%

O=C1Nc2ccccc2C(=O)/C1=N/Nc1ccccc1
MIC [1]: < 6.25 µg/mL
inhibition of growth at 6.25 µg/mL [2]: 97%

O=C1Nc2c(cccc2[N+](=O)[O-])C(=O)/C1=N/Nc1ccccc1[N+](=O)[O-]
MIC [1]: < 6.25 µg/mL
inhibition of growth at 6.25 µg/mL [2]: 80%

O=C1Nc2cc(Cl)ccc2C(=O)/C1=N/Nc1ccccc1
MIC [1]: < 6.25 µg/mL
inhibition of growth at 6.25 µg/mL [2]: 76%

CN1C(=O)/C(=N\Nc2ccc([N+](=O)[O-])cc2)C(=O)c2ccccc21
MIC [1]: > 6.25 µg/mL
inhibition of growth at 6.25 µg/mL [2]: 20%

O=C1Nc2c(cccc2[N+](=O)[O-])C(=O)/C1=N/Nc1ccccc1
MIC [1]: < 6.25 µg/mL
inhibition of growth at 6.25 µg/mL [2]: 99%

COc1ccc2c(c1)C(=O)/C(=N/Nc1ccccc1)C(=O)N2
MIC [1]: > 6.25 µg/mL
inhibition of growth at 6.25 µg/mL [2]: 0%

O=C1Nc2c(Cl)ccc(Cl)c2C(=O)/C1=N/Nc1ccc(F)cc1
MIC [1]: < 6.25 µg/mL
inhibition of growth at 6.25 µg/mL [2]: 80%

O=C1Nc2ccc(Cl)cc2C(=O)/C1=N/Nc1ccc([N+](=O)[O-])cc1
MIC [1]: < 6.25 µg/mL
inhibition of growth at 6.25 µg/mL [2]: 91%

O=C1Nc2c(cccc2[N+](=O)[O-])C(=O)/C1=N/Nc1ccc(F)c(Cl)c1
MIC [1]: < 6.25 µg/mL
inhibition of growth at 6.25 µg/mL [2]: 85%

O=C1Nc2c(ccc(Cl)c2Cl)C(=O)/C1=N/Nc1cccc(F)c1
MIC [1]: < 6.25 µg/mL
inhibition of growth at 6.25 µg/mL [2]: 80%

O=C1Nc2ccc(Cl)cc2C(=O)/C1=N/Nc1cccc([N+](=O)[O-])c1
MIC [1]: < 6.25 µg/mL
inhibition of growth at 6.25 µg/mL [2]: 96%

CC(=O)c1ccc(N/N=C2\C(=O)Nc3c(cccc3[N+](=O)[O-])C2=O)cc1
MIC [1]: < 6.25 µg/mL
inhibition of growth at 6.25 µg/mL [2]: 89%

Cc1ccc(N/N=C2\C(=O)Nc3cc([N+](=O)[O-])ccc3C2=O)cc1
MIC [1]: < 6.25 µg/mL
inhibition of growth at 6.25 µg/mL [2]: 92%

O=C1Nc2c(ccc(Cl)c2Cl)C(=O)/C1=N/Nc1cccc(Cl)c1
MIC [1]: < 6.25 µg/mL
inhibition of growth at 6.25 µg/mL [2]: 82%

Cc1cccc(N/N=C2\C(=O)Nc3cc(C)ccc3C2=O)c1
MIC [1]: < 6.25 µg/mL
inhibition of growth at 6.25 µg/mL [2]: 76%

O=C1Nc2c(Cl)cccc2C(=O)/C1=N/Nc1ccc(Cl)c(Cl)c1
MIC [1]: > 6.25 µg/mL
inhibition of growth at 6.25 µg/mL [2]: 21%

CC(=O)c1ccc(N/N=C2\C(=O)Nc3c(ccc(Cl)c3Cl)C2=O)cc1
MIC [1]: < 6.25 µg/mL
inhibition of growth at 6.25 µg/mL [2]: 98%

COc1ccc(N/N=C2\C(=O)Nc3c(ccc(Cl)c3Cl)C2=O)cc1
MIC [1]: > 6.25 µg/mL
inhibition of growth at 6.25 µg/mL [2]: 14%

O=C1Nc2cc(Cl)ccc2C(=O)/C1=N/Nc1cccc(Cl)c1
MIC [1]: > 6.25 µg/mL
inhibition of growth at 6.25 µg/mL [2]: 47%

COc1ccc(N/N=C2\C(=O)Nc3ccc(Cl)cc3C2=O)c(C)c1
MIC [1]: > 6.25 µg/mL
inhibition of growth at 6.25 µg/mL [2]: 12%

CC(=O)c1ccc(N/N=C2\C(=O)Nc3ccc(Cl)cc3C2=O)cc1
MIC [1]: > 6.25 µg/mL
inhibition of growth at 6.25 µg/mL [2]: 29%

O=C1Nc2c(Cl)cccc2C(=O)/C1=N/Nc1ccccc1Cl
MIC [1]: > 6.25 µg/mL
inhibition of growth at 6.25 µg/mL [2]: 7%

O=C1Nc2c(Cl)cccc2C(=O)/C1=N/Nc1cccc([N+](=O)[O-])c1
MIC [1]: > 6.25 µg/mL
inhibition of growth at 6.25 µg/mL [2]: 24%

COc1ccc(N/N=C2\C(=O)Nc3c(cccc3[N+](=O)[O-])C2=O)cc1
MIC [1]: > 6.25 µg/mL
inhibition of growth at 6.25 µg/mL [2]: 37%

O=C1Nc2c(cccc2[N+](=O)[O-])C(=O)/C1=N/Nc1ccc([N+](=O)[O-])cc1
MIC [1]: < 6.25 µg/mL
inhibition of growth at 6.25 µg/mL [2]: 65%

CN1C(=O)/C(=N\Nc2ccccc2[N+](=O)[O-])C(=O)c2ccccc21
MIC [1]: < 6.25 µg/mL
inhibition of growth at 6.25 µg/mL [2]: 94%

Cc1cccc(N/N=C2\C(=O)Nc3cc([N+](=O)[O-])ccc3C2=O)c1
MIC [1]: > 6.25 µg/mL
inhibition of growth at 6.25 µg/mL [2]: 19%

O=C1Nc2ccc(Cl)cc2C(=O)/C1=N/Nc1ccc(Cl)cc1
MIC [1]: < 6.25 µg/mL
inhibition of growth at 6.25 µg/mL [2]: 98%

Cc1cccc(N/N=C2\C(=O)Nc3c(cccc3[N+](=O)[O-])C2=O)c1
MIC [1]: < 6.25 µg/mL
inhibition of growth at 6.25 µg/mL [2]: 95%

Cc1cccc(N/N=C2\C(=O)Nc3c(cccc3[N+](=O)[O-])C2=O)c1C
MIC [1]: > 6.25 µg/mL
inhibition of growth at 6.25 µg/mL [2]: 48%

O=C1Nc2c(cccc2[N+](=O)[O-])C(=O)/C1=N/Nc1ccccc1-c1ccccc1
MIC [1]: > 6.25 µg/mL
inhibition of growth at 6.25 µg/mL [2]: 35%

O=C1Nc2c(cccc2[N+](=O)[O-])C(=O)/C1=N/Nc1ccc(Cl)c(Cl)c1
MIC [1]: < 6.25 µg/mL
inhibition of growth at 6.25 µg/mL [2]: 79%

Cc1cccc(N/N=C2\C(=O)Nc3ccccc3C2=O)c1
MIC [1]: > 6.25 µg/mL
inhibition of growth at 6.25 µg/mL [2]: 42%

O=C1Nc2ccc(Cl)cc2C(=O)/C1=N/Nc1ccccc1[N+](=O)[O-]
MIC [1]: < 6.25 µg/mL
inhibition of growth at 6.25 µg/mL [2]: 64%
